The target of assay [1] is T1, USP28 (Homo sapiens, UniProt Q96RU2).
T1 sequence (Q96RU2 1-700): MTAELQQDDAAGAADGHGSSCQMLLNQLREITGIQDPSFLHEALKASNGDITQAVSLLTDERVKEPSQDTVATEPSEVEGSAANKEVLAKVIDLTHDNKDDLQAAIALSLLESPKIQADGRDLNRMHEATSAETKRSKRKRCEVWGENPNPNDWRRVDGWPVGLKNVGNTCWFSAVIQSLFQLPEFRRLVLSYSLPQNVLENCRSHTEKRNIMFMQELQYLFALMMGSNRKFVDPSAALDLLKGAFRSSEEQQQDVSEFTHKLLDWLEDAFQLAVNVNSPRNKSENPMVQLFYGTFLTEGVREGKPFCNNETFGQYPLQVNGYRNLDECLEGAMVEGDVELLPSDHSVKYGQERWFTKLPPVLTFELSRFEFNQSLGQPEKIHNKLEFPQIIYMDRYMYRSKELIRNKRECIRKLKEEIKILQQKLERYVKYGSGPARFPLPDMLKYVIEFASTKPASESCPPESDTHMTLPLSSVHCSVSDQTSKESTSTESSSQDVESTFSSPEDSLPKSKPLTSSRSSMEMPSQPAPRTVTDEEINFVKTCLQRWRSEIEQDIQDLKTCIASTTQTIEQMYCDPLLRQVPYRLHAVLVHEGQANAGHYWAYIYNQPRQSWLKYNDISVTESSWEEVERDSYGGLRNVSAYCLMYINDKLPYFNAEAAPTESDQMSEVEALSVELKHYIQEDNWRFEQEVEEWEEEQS
Briefly: biochemical. It counts as biochemical. The following applies: for inhibition at 12.5 µM: read-out: Inhibition rate at 12.5 μmol/L (%); for Inhibition rate at 12.5 μmol/L (%): 12.5 μmol/L compound, Ub-AMC substrate.

Assay [2] deals with T1, USP28. In words: Bio-layer interferometry. It counts as binding. (BLI is a label-free optical method that tracks binding on a fibre tip over time.)
The target of assay [3] is T1, USP28. The following applies: read-out: EC50 USP28 inhibition; cited from earlier work.
Assay [4] concerns USP28, LSD1 and total c-Myc in HGC-27 cells. Briefly: Western blotting of USP28, LSD1 and total c-Myc. The assay is classed as cell-based, human. As to conditions: HGC-27, 3 h, even at 40 μmol/L. For orientation: A western blot detects proteins with antibodies after separation by electrophoresis.
The next assay concerns HGC-27 cells. In words: MTT cell viability assay, HGC-27. The following applies: Homo sapiens, HGC-27, 72 h, read-out: IC50 cell viability HGC-27.
The subject of the next assay is MKN45 cells. Briefly: cells. The following applies: Homo sapiens, MKN-45, 72 h, read-out: IC50 cell viability MKN45.
The test system of the next assay is MGC-803 cells. In words: cells. As to conditions: Homo sapiens, MGC-803, 72 h, read-out: IC50 cell viability MGC-803.
Another assay relates to GES-1 cells. In words: cells. As to conditions: Homo sapiens, GES1, 72 h, read-out: IC50 cell viability GES-1.

Like-named read-outs stand apart in the source and are kept apart here.

As to `CCCSc1nc(NCc2ccco2)c2nnn(Cc3ccccc3)c2n1` [Compound 5, 3-Benzyl-N-(furan-2-ylmethyl)-5-(propylthio)-3H-[1,2,3]triazolo[4,5-d]pyrimidin-7-amine], the concentration for half-maximal inhibition (IC50) (as a rule, the concentration that gives 50% inhibition) on USP28 [1] (read-out: IC50 against USP28, Ub-AMC 100 nmol/L, USP28 62.5 nmol/L) was 14.2 ± 0.19 µM. The inhibition at 12.5 µM on USP28 [1] is 45.6%.
Regarding `CCCSc1nc(NCCN)c2nnn(Cc3ccccc3)c2n1` [Compound 8, N^1-(3-benzyl-5-(propylthio)-3H-[1,2,3]triazolo[4,5-d]pyrimidin-7-yl)ethane-1,2-diamine], the equilibrium dissociation constant (Kd) (in general, the equilibrium constant for the complex coming apart) on USP28 [2] was 0.09 µM. Moreover, at USP28 [1], the IC50 amounted to 4.34 ± 0.3 µM and the inhibition at 12.5 µM amounted to 80%.
Turning to `CCCSc1nc(NCc2cccnc2)c2nnn(Cc3ccccc3)c2n1` [Compound 6, 3-Benzyl-5-(propylthio)-N-(pyridin-3-ylmethyl)-3H-[1,2,3]triazolo[4,5-d]pyrimidin-7-amine], on USP28 [1], the IC50 came to 20.5 ± 1.45 µM and the inhibition at 12.5 µM was 23.1%.
`CCCSc1nc(NCCN)c2nnn(Cc3ccc(O)cc3)c2n1` [Compound 16, 4-((7-((2-Aminoethyl)amino)-5-(propylthio)-3H-[1,2,3]triazolo[4,5-d]pyrimidin-3-yl)methyl)phenol]: on USP28 [1], 28.7 ± 1.36 µM corresponded to half-maximal inhibition (IC50) and the inhibition at 12.5 µM worked out at 36.2%.
The corresponding values for `CCCSc1nc(NCCN)c2nnn(Cc3ccccc3Cl)c2n1` [Compound 17, N^1-(3-(2-Chlorobenzyl)-5-(propylthio)-3H-[1,2,3]triazolo[4,5-d]pyrimidin-7-yl)ethane-1,2-diamine] are 13.21 ± 0.03 µM and 56%.
Regarding `NCCNc1ncnc2c1nnn2Cc1ccc(Cl)cc1` [Compound 21, N^1-(3-(4-Chlorobenzyl)-3H-[1,2,3]triazolo[4,5-d]pyrimidin-7-yl)ethane-1,2-diamine], on USP28 [1], it took 12.3 ± 0.27 µM to reach half-maximal inhibition (IC50) and the inhibition at 12.5 µM worked out at 62.2%.
In the case of `N#CSc1cc(SC#N)c(N)nc1N` [PR-619], on USP28 [3], the EC50 (as a rule, the concentration needed to bring the measured effect to its halfway point) is approximately 8 µM.
As to `CCCSc1nc(NCCN(C)C)c2nnn(Cc3ccccc3)c2n1` [Compound 10, N^1-(3-Benzyl-5-(propylthio)-3H-[1,2,3]triazolo[4,5-d]pyrimidin-7-yl)-N^2,N^2-dimethylethane-1,2-diamine], at USP28 [1], the IC50 is more than 100 µM and the “Inhibition rate at 12.5 μmol/L (%)” value is given as “Inactive”.
On to `NCCNc1nc(SCc2ccccc2)nc2c1nnn2Cc1ccc(Cl)cc1` [Compound 22, N^1-(5-(Benzylthio)-3-(4-chlorobenzyl)-3H-[1,2,3]triazolo[4,5-d]pyrimidin-7-yl)ethane-1,2-diamine], for which, on USP28 [1], inhibition was half-maximal at 23.3 ± 0.59 µM (IC50) and the inhibition at 12.5 µM came out at 45%.
For the compound `CCCSc1nc(N2CCNCC2)c2nnn(Cc3ccccc3)c2n1` [Compound 7, 3-Benzyl-7-(piperazin-1-yl)-5-(propylthio)-3H-[1,2,3]triazolo[4,5-d]pyrimidine], on USP28 [1], the IC50 was 10.2 ± 1.3 µM and the inhibition at 12.5 µM turned out to be 50%.
For `Cc1nc(NCCN)c2nnn(Cc3ccc(Cl)cc3)c2n1` [Compound 23, N^1-(3-(4-Chlorobenzyl)-5-methyl-3H-[1,2,3]triazolo[4,5-d]pyrimidin-7-yl)ethane-1,2-diamine], in that order: 34.8 ± 1.27 µM and 35%.
Turning to `CCCSc1nc(NCCN)c2nnn(CCCc3ccccc3)c2n1` [Compound 14, N^1-(3-(3-Phenylpropyl)-5-(propylthio)-3H-[1,2,3]triazolo[4,5-d]pyrimidin-7-yl)ethane-1,2-diamine], the IC50 at USP28 [1] was determined as 27.6 ± 2.2 µM.
As to `CCCSc1nc(NCCN)c2nnn(CCNC(=O)OC(C)(C)C)c2n1` [Compound 13, Tert-butyl(2-(7-((2-aminoethyl)amino)-5-(propylthio)-3H-[1,2,3]triazolo[4,5-d]pyrimidin-3-yl)ethyl)carbamate], on USP28 [1], the IC50 was more than 100 µM and the “Inhibition rate at 12.5 μmol/L (%)” value is reported as “Inactive”.
In the case of `CCCSc1nc(NCCNC(=O)OC(C)(C)C)c2nnn(Cc3ccccc3)c2n1` [Compound 9, Tert-butyl(2-((3-benzyl-5-(propylthio)-3H-[1,2,3]triazolo[4,5-d]pyrimidin-7-yl)amino)ethyl)carbamate], on USP28 [1], the IC50 was more than 100 µM and the “Inhibition rate at 12.5 μmol/L (%)” value is “Inactive”.
The corresponding values for `CCCSc1nc(NCCNC(C)=O)c2nnn(Cc3ccc(Cl)cc3)c2n1` [Compound 20, N-(2-((3-(4-Chlorobenzyl)-5-(propylthio)-3H-[1,2,3]triazolo[4,5-d]pyrimidin-7-yl)amino)ethyl)acetamide] are more than 100 µM and “Inactive”.
Regarding `CCCSc1nc(NCCN)c2nnn(CCc3c[nH]c4ccccc34)c2n1` [Compound 15, N^1-(3-(2-(1H-Indol-3-yl)ethyl)-5-(propylthio)-3H-[1,2,3]triazolo[4,5-d]pyrimidin-7-yl)ethane-1,2-diamine], at USP28 [1], half-maximal inhibition (IC50) was put at 24.8 ± 0.58 µM and the inhibition at 12.5 µM was 34%.
The corresponding values for `C#CCSc1nc(NCCN)c2nnn(Cc3ccc(Cl)cc3)c2n1` [Compound 24, N^1-(3-(4-Chlorobenzyl)-5-(prop-2-yn-1-ylthio)-3H-[1,2,3]triazolo[4,5-d]pyrimidin-7-yl)ethane-1,2-diamine] are 14.5 ± 0.19 µM and 59.9%.
For `CCCSc1nc(NCCNC)c2nnn(Cc3ccccc3)c2n1` [Compound 11, N^1-(3-Benzyl-5-(propylthio)-3H-[1,2,3]triazolo[4,5-d]pyrimidin-7-yl)-N^2-methylethane-1,2-diamine], in that order: 8.55 ± 0.87 µM and 61.7%.
Regarding `CCCSc1nc(NCCN)c2nnn(CCO)c2n1` [Compound 12, 2-(7-((2-Aminoethyl)amino)-5-(propylthio)-3H-[1,2,3]triazolo[4,5-d]pyrimidin-3-yl)ethan-1-ol], the “Binding to USP28 (in words)” value on USP28 [2] (BLI) was “failed to bind”. Moreover, the IC50 against USP28 [1] is more than 100 µM; in the assay on HGC-27 cells, more than 100 µM; in the assay with MKN45 cells it was more than 50 µM; in the assay on MGC-803 cells, more than 50 µM; with GES-1 cells, more than 100 µM. Moreover, on USP28 [1], the “Inhibition rate at 12.5 μmol/L (%)” value is recorded as “Inactive”. For the same compound, in assay [4], the “protein levels of USP28, LSD1 and total c-Myc” value is listed as “remained unchanged”.
`CCCSc1nc(NCCN)c2nnn(Cc3ccc(Br)cc3)c2n1` [Compound 18, N^1-(3-(4-Bromobenzyl)-5-(propylthio)-3H-[1,2,3]triazolo[4,5-d]pyrimidin-7-yl)ethane-1,2-diamine]: on USP28 [1], the midpoint of inhibition, the IC50, lay at 6 ± 0.05 µM and the inhibition at 12.5 µM was 76.7%.
For `CCCSc1nc(NCCCN2CCOCC2)c2nnn(Cc3ccccc3)c2n1` [Compound 4, 3-Benzyl-N-(3-morpholinopropyl)-5-(propylthio)-3H-[1,2,3]triazolo[4,5-d]pyrimidin-7-amine], on USP28 [1], the IC50 is more than 100 µM and the “Inhibition rate at 12.5 μmol/L (%)” value is “Inactive”.
For `CCCSc1nc(NC2CC2)c2nnn(Cc3ccccc3)c2n1` [Compound 3, 3-Benzyl-N-cyclopropyl-5-(propylthio)-3H-[1,2,3]triazolo[4,5-d]pyrimidin-7-amine], in that order: more than 100 µM and “Inactive”.

These data come from paper PMC7488365 (Acta Pharmaceutica Sinica. B, 2019).
